Four molecules from patent publication US12133857B2, “Method for prolonging half-life of theanine in vivo” (Anhui Agricultural University, priority 2023, dated 2024) can be followed below.

In general, half-life refers to how long it takes for the measured level to halve. A lower half-life goes with fast loss.

Data set [1] can be described thus: in vivo. To be noted: rat, po, 500 mg/kg. The protocol:
1-deoxy-1-L-theanine-D-fructopyranose was recorded as a theanine glycoside 1, 1-deoxy-1-L-theanine-D-galactopyranose was recorded as a theanine glycoside 2, and 1-deoxy-1-L-theanine-D-ribopyranose was recorded as a theanine glycoside 3. • 1. Experimental animals: Male SD rats with the body weight of (180±20) g were used. • 2. Administration and sample collection: The rats were intragastrically administered (n=6), which were randomly divided into two groups, including a theanine group and a theanine glycoside group. The rats were subjected to fasting without limitation of water for 12 h before administration and then allowed to drink water after intragastric administration. The intragastric administration dose was 500 mg/kg. 1 h, 2 h, 4 h, 8 h and 12 h before and after the administration, 0.5 mL of blood was collected from eye sockets of 6 rats in each group, respectively. Blood samples were centrifuged at 3,000 g for 15 min, supernatants were separated to obtain plasma samples, and the plasma samples were stored at −80° C. • 3. Instrument conditions and determination of plasma samples:
(§1) Instrument: SCIEX Triple Quad™ 5500 LC-MS/MS was used.
Drawing of a standard curve: 100 μL of blank plasma of the rats was taken, added into 1.5 mL of a 70% methanol aqueous solution and mixed in vortex for 30 s, and a resulting mixture was subjected to ultrasonic treatment in an ice water bath for 10 min, followed by standing at −20° C. for 20 min to precipitate a protein. The protein was centrifuged briefly for 15 s for 2 times, and a supernatant was taken out, dried by a vacuum concentrator at 4° C. and redissolved with 200 μl of methanol. 200 μL of a series of standard solutions of a tested compound and 10 μL of an internal standard (DL-4-chlorophenylmethylamino) were sequentially added to prepare plasma samples of the tested compound with a plasma concentration of 0.1 μM, 1 μM, 10 μM, 100 μM, 1,000 μM and 10,000 μM respectively, followed by LC-MS/MS analysis. With the concentration of the tested compound (x) as the abscissa and the ratio of peak areas of the tested compound and the internal standard (y) as the ordinate, regression calculation was performed by a weighted least square method to obtain a linear regression equation, namely a standard curve. According to the standard curve, the linear range of the tested compound in the plasma of the rats was 0.1 μM-10,000 μM as determined by an LC-MS/MS method. […]
The half-life T1/2 was calculated according to formulas below: […]

Data set [2] is described as follows: in vivo. As to conditions: mouse, po, 500 mg/kg. As to the method:
1-deoxy-1-L-theanine-D-fructopyranose was recorded as a theanine glycoside 1, 1-deoxy-1-L-theanine-D-galactopyranose was recorded as a theanine glycoside 2, and 1-deoxy-1-L-theanine-D-ribopyranose was recorded as a theanine glycoside 3. • 1. Experimental animals: Male C57BL/6J mice with the body weight of (20±2) g were used. • 2. Administration and sample collection: The mice were intragastrically administered (n=6), which were randomly divided into two groups, including a theanine group and a theanine glycoside group. The mice were subjected to fasting without limitation of water for 12 h before administration and then allowed to drink water after intragastric administration. The intragastric administration dose was 500 mg/kg. 1 h, 2 h, 4 h, 8 h and 12 h before and after the administration, 6 mice in each group were killed by cervical dislocation and then dissected to obtain brain tissues respectively, and the brain tissues were stored at −80° C. for subsequent detection. • 3. Instrument conditions and determination of brain tissue samples:
as §1
Drawing of a standard curve: 20 mg of blank brain tissues of the mice were taken, added into 1.5 mL of a 70% methanol aqueous solution and mixed in vortex for 30 s, and a resulting mixture was subjected to ultrasonic treatment in an ice water bath for 10 min, followed by standing at −20° C. for 20 min to precipitate a protein. The protein was centrifuged briefly for 15 s for 2 times, and a supernatant was taken out, dried by a vacuum concentrator at 4° C. and redissolved with 200 μL of methanol. 200 μl of a series of standard solutions of a tested compound and 10 μl of an internal standard (DL-4-chlorophenylmethylamino) were sequentially added to prepare brain tissue samples of the tested compound with a brain tissue concentration of 0.1 μM, 1 μM, 10 μM, 100 μM, 1,000 μM and 10,000 μM respectively, followed by LC-MS/MS analysis. With the concentration of the tested compound (x) as the abscissa and the ratio of peak areas of the tested compound and the internal standard (y) as the ordinate, regression calculation was performed by a weighted least square method to obtain a linear regression equation, namely a standard curve. According to the standard curve, the linear range of the tested compound in the plasma of the mice was 0.1 μM-10,000 μM as determined by an LC/MS/MS method. […]

Turning to `CCNC(=O)CC[C@H](NCC1(O)OC[C@@H](O)[C@@H](O)[C@@H]1O)C(=O)O` (stereo partly drawn) [Theanine glycoside 1, 1-deoxy-1-L-theanine-D-fructopyranose], the “T1/2 in the blood” value in “in vivo [1]” came out at 25.70 ± 1.31 h. Further, in the data set “in vivo [2]”, the “T1/2 in the brain” value is on record as 19.56 ± 1.54 h.

Consider `CCNC(=O)CC[C@H](NC1O[C@H](CO)[C@H](O)[C@H](O)[C@H]1O)C(=O)O` (stereo partly drawn) [Theanine glycoside 2, 1-deoxy-1-L-theanine-D-galactopyranose], for which the “T1/2 in the blood” value in the data set “in vivo [1]” is reported as 19.94 ± 1.06 h. Besides, in “in vivo [2]”, the “T1/2 in the brain” value was found to be 13.55 ± 1.55 h.

Take `CCNC(=O)CC[C@H](NC1OC[C@@H](O)[C@@H](O)[C@H]1O)C(=O)O` (stereo partly drawn) [Theanine glycoside 3, 1-deoxy-1-L-theanine-D-ribopyranose]: in “in vivo [1]”, the “T1/2 in the blood” value amounted to 16.80 ± 1.93 h. In the data set “in vivo [2]”, the “T1/2 in the brain” value was determined as 10.85 ± 0.54 h.

`CCNC(=O)CC[C@H](N)C(=O)O` [Theanine, L-theanine]: the half-life is 123 ± 7.2 min in “in vivo [1]” (male, SD) and 124 ± 11.4 min in the data set “in vivo [2]” (male, C57BL/6J).
